The results in this text go back to paper doi:10.1101/2022.09.08.507076v2 (biorxiv, 2022).

Common to all, as to assay type: biochemical
One test deals with CYP3A4 (Homo sapiens, UniProt P08684). The experiment in a line: recombinant CYP inhibition, fluorescence.
The next test concerns the target human topoisomerase IIα (Homo sapiens, UniProt P11388). As to the kind of experiment: human topoisomerase IIα decatenation assay.
In the next test the target is CYP2C9 (Homo sapiens, UniProt P11712). As to the kind of experiment: recombinant CYP inhibition, fluorescence.
The target in a further test is CYP2D6 (Homo sapiens, UniProt P10635). The experiment in a line: recombinant CYP inhibition, fluorescence.
The next test concerns the target T1, CYP1A2 (Homo sapiens, UniProt P05177).
T1 sequence (P05177 2-516): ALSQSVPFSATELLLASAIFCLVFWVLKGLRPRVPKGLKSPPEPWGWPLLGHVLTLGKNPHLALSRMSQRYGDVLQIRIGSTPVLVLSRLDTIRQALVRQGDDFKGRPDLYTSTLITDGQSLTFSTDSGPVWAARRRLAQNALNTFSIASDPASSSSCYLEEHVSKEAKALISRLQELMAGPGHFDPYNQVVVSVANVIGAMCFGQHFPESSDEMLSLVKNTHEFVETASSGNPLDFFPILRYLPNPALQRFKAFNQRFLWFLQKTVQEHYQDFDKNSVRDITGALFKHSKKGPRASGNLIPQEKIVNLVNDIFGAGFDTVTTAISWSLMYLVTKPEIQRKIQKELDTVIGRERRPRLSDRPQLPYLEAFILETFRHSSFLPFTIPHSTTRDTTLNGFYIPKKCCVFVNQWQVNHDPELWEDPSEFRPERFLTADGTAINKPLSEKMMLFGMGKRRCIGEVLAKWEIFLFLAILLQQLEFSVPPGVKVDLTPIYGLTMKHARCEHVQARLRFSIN
As to the kind of experiment: recombinant CYP inhibition, fluorescence.

The target in the next test is CYP2C19 (Homo sapiens, UniProt P33261). The experiment in a line: recombinant CYP inhibition, fluorescence.
CYP2C19, sequence (P33261 whole entry): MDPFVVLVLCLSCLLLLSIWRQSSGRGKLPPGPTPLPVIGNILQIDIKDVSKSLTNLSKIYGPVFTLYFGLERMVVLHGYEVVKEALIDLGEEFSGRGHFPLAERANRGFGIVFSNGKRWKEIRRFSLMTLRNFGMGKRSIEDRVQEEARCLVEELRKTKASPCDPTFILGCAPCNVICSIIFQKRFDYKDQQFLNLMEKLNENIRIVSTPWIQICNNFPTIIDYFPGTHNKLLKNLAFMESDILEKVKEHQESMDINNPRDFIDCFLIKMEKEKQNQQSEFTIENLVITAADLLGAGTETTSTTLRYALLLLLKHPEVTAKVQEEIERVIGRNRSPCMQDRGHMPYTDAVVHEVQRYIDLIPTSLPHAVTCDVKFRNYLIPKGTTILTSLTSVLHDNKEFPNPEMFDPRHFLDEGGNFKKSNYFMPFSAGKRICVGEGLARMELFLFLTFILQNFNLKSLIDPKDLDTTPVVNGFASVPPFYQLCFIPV

CYP2C9, sequence (P11712 whole entry): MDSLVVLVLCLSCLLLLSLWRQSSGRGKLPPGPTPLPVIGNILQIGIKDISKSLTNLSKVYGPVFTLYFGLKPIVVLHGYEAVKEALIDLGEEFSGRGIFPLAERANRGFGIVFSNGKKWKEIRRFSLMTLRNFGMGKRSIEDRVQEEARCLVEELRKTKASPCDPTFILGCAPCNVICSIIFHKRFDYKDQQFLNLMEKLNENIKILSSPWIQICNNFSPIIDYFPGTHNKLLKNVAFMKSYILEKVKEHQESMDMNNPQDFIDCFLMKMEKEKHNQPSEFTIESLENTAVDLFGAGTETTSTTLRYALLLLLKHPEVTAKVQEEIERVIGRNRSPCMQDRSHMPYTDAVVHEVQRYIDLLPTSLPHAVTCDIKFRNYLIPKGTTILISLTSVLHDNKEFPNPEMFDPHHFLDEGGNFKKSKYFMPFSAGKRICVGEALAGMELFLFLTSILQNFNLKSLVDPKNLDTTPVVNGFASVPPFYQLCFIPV
CYP3A4, sequence (P08684 2-503): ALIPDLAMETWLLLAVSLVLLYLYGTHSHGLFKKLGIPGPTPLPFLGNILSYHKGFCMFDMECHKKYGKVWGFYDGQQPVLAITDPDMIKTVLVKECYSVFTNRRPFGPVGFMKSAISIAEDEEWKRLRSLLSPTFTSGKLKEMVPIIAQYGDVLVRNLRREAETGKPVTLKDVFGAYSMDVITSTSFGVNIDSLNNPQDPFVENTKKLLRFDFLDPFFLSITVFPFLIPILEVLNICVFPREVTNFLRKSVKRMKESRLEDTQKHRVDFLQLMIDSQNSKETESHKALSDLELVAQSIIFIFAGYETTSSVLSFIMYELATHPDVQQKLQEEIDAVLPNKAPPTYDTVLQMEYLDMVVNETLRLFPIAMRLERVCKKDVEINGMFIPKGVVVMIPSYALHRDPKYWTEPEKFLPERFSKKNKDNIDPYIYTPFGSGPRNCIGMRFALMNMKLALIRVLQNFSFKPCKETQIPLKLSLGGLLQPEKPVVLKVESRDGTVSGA
human topoisomerase IIα, sequence (P11388 whole entry): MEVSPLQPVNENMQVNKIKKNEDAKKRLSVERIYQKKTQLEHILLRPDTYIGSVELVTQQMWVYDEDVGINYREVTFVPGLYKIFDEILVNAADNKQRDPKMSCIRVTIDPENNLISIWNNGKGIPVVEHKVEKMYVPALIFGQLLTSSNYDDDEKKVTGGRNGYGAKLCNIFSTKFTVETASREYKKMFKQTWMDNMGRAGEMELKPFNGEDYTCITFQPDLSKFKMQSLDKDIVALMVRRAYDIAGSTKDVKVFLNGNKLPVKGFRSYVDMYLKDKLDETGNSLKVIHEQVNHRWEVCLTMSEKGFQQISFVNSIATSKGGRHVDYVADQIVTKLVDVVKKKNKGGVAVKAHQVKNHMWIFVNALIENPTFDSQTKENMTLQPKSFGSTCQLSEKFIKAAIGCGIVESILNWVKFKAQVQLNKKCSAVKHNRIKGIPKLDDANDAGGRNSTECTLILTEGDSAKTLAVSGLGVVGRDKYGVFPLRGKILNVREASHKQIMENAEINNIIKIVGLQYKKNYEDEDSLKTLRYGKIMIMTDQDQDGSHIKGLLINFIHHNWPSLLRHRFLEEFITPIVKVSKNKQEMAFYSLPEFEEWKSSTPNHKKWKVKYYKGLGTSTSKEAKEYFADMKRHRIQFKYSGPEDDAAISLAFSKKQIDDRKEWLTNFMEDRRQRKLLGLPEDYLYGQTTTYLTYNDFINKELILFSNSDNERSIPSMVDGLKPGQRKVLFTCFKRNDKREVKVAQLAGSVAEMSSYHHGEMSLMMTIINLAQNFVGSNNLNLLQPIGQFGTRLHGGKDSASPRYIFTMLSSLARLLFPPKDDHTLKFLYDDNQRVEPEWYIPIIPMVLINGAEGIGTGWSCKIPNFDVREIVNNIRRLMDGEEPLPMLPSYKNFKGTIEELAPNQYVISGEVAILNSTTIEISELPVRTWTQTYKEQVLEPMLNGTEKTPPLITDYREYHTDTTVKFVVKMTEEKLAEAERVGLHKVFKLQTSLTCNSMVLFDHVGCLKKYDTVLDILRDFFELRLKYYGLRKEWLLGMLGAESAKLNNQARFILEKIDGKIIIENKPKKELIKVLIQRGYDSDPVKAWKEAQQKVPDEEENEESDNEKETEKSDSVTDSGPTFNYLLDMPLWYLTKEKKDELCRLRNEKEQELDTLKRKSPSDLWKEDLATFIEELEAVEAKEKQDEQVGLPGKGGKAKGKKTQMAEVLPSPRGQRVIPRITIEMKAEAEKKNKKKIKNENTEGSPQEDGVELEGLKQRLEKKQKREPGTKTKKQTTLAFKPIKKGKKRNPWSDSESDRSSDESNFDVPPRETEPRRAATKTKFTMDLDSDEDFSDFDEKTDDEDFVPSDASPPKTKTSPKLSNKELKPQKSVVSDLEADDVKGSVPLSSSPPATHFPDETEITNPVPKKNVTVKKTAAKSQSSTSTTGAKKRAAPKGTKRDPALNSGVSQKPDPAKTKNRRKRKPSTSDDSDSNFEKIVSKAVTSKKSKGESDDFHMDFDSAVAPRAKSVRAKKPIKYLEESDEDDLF
CYP2D6, sequence (P10635 whole entry): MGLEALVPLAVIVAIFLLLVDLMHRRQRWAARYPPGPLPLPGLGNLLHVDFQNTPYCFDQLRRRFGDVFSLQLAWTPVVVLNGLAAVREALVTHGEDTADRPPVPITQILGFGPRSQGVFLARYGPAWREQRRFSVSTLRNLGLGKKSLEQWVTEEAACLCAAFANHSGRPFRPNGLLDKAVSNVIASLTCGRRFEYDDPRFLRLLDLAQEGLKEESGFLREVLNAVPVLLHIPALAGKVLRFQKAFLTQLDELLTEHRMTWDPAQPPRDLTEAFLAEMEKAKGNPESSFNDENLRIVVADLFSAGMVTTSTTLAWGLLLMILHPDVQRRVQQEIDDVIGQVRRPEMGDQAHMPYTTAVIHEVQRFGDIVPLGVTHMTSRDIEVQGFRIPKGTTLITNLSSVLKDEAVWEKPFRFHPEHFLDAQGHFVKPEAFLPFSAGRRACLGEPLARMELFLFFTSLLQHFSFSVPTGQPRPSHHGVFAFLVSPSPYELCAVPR

One may read the IC50 as the concentration at which inhibition is half-maximal. For the molecule `CCNC(=O)Nc1nc2c(F)c(-c3ccc(COP(=O)(O)O)nc3)cc(-c3ccccn3)c2s1` [RBx 10115912], the IC50 is over 10 µM on CYP3A4; over 993 µM at human topoisomerase IIα; over 10 µM at CYP2C9; over 10 µM at CYP2D6; over 10 µM at CYP1A2; over 10 µM at CYP2C19.
In the case of `CCNC(=O)Nc1nc2c(F)c(-c3cnc(N4CCC(C(=O)O)CC4)nc3)cc(-c3ccccn3)c2s1` [RBx 10080758], the IC50 on CYP3A4 was over 10 µM; at human topoisomerase IIα, over 959 µM; at CYP2C9, over 10 µM; at CYP2D6, over 10 µM; on CYP1A2 it was over 10 µM; at CYP2C19 it was over 10 µM.
